We go through 22 compounds from patent US7504517B2, “Kv1.5 potassium channel inhibitors” (Wyeth, priority 2006, dated 2009).

One series concerns L-type calcium channels. Put plainly: FLIPR L-Type Calcium Channel Assay. Format: cell-based, murine. The settings on record: HL-1 cells expressing endogenous L-type calcium channels; calcium influx after 20 mM KCl; read-out: L-type Ca^2+ IC50. On the procedure: 50 μL per well test compounds are added to the plates and further incubated for 15 min. in a 5% CO2 37° C. incubator. All final solutions contain the anion exchange inhibitor, probenecid (2.5 mM). The 96-well plates are then placed in the center position of the FLIPR 1 (Fluorometric Imaging Plate Reader, Molecular Devices Corporation). Cell monolayers in each well are simultaneously illuminated at 488 nm with an Argon ion laser, and fluorescence emission is monitored using a 510-570 nm bandpass filter and a cooled CCD camera. To depolarize the plasma membrane and activate L-type calcium channels, 50 μL per well of 20 mM KCl (final concentration) are dispensed simultaneously to all 96 wells using the FLIPR's automatic 96-well pipettor. Fluorescence measurements are captured for 5 min. following KCl addition. Calcium influx, expressed as % control, is calculated for each concentration of test compound and concentration-response curves and IC50 values are generated using GraphPad Prism 4.0.

In the next series the target is T1, Kv1.5 (Homo sapiens, UniProt P22460).
T1 construct: expressed in transfected cells; host or cells: HEK or LTK- cells
T1 sequence (P22460 whole entry): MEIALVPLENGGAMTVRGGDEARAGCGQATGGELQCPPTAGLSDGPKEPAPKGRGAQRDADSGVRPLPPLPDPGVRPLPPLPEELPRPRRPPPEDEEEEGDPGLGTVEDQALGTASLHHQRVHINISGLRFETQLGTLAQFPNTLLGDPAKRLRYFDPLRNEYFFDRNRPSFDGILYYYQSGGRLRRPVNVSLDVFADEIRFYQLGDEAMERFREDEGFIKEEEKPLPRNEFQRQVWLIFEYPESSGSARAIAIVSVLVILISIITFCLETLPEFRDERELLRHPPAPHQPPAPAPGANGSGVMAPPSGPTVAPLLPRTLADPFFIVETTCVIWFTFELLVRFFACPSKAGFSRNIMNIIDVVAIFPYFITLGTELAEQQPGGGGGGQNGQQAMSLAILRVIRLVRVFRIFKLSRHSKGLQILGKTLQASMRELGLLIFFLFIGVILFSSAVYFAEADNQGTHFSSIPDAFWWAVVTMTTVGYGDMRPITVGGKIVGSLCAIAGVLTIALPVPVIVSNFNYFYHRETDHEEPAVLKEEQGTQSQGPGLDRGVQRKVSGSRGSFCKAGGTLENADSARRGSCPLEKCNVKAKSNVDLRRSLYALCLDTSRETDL
Put plainly: Kv1.5 Patch Clamp EP. Particulars: whole cell patch clamp; for inhibition at 1 µM: single point, Kv1.5 stably over expressed in HEK or LTK- cells; for IC50: HEK or LTK- cells, at least four concentrations, n=3. Format: cell-based. On the procedure: The external solution is standard Tyrodes solution. […] Inhibition was measured at the end of the 1 second pulses and expressed relative to controls. Initial Kv1.5 inhibition is estimated by single point determinations done at 1 μM.

The target of a further series is HERG (Homo sapiens, UniProt Q12809). Put plainly: HERG Patch Clamp EP. Particulars: for inhibition at 10 µM: human, HEK cells stably overexpressing HERG. (In patch-clamp work, channel activity is measured electrically.)
Chain of HERG (Q12809 whole entry): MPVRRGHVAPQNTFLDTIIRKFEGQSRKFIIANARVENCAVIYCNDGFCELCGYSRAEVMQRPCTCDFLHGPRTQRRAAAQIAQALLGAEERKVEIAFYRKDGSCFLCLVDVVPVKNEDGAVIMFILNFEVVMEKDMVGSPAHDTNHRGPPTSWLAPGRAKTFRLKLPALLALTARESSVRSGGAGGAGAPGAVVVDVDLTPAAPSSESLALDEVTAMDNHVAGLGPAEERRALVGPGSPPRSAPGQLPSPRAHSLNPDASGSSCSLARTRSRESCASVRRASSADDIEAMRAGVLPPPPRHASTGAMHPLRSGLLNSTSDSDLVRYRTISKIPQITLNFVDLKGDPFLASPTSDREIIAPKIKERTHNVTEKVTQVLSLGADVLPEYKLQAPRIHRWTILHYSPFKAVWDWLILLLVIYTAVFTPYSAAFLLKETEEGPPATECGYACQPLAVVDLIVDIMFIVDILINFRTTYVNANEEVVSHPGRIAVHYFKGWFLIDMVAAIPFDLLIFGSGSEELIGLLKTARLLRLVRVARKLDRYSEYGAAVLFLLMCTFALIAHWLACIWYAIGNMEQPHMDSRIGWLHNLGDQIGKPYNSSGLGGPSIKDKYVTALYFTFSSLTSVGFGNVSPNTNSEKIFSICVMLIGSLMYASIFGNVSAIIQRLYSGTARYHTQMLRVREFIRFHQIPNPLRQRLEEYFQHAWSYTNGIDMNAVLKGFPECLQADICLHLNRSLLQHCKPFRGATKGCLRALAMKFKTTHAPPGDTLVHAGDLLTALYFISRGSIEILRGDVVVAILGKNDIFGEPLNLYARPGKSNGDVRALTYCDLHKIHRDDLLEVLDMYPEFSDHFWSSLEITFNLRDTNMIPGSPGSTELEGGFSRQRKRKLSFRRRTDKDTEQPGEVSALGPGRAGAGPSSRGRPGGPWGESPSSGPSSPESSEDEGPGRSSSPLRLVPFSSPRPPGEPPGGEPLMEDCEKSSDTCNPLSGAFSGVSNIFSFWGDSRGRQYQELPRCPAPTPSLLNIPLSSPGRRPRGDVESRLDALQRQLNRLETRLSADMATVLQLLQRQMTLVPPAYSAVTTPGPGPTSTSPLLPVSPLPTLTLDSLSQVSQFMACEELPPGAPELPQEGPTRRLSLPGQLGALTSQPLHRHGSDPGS

Protocol for HERG: HERG currents are recorded by the whole cell mode of patch clamp electrophysiology as described by Hamill et al.^3 HERG is stably over expressed in HEK cells. Microelectrodes are pulled from borosilicate glass (TW150) and heat polished (tip resistance, 1.5 to 3 megaohms). The external solution is standard Tyrodes solution. The internal (microelectrode) solution contained: 110 mM KCl, 5 mM K2ATP, 5 mM K4BAPTA, 1 mM MgCl2 and 10 mM HEPES, adjusted to pH 7.2 with KOH. […] Compounds are prepared as 10-20 mM DMSO stocks and diluted to appropriate test concentrations. […] Inhibition of HERG is measured at the peak of the tail currents and expressed relative to controls. Initial HERG activity is estimated by single point determinations run at 10 μM. Concentration response curves are generated for appropriate compounds utilizing at least four concentrations and an n=3. Curve fitting and IC50 estimating are done using Graphpad software (Ver. 4). • 1.

Consider `COc1ccc(CCN2C(=O)N(NS(=O)(=O)C3CC3)CC2c2ccc(OC)cc2)cc1` (stereo not drawn) [Compound 29, 1-(Cyclopropylsulfonylamino)-3-[(4-methoxyphenyl)ethyl]-4-(4-methoxyphenyl)-2-imidazolidinone], for which the IC50 (as a rule, the concentration at which inhibition is half-maximal) in the series on L-type calcium channels was found to be 34 µM. In addition, at 1 µM the inhibition on Kv1.5 was 85%. For the same compound, the inhibition (in general, the drop in the measured response relative to a control, in per cent) at 10 µM against HERG was determined as 31%.
For `COc1ccc(CCN2C(=O)N(NS(N)(=O)=O)CC2c2ccc(C(C)(C)C)cc2)cc1` (stereo not drawn) [Compound 9, 1-(Aminosulfonylamino)-3-[2-(4-methoxyphenyl)ethyl]-4-[4-(tert-butyl)phenyl]-2-imidazolidinone], the IC50 in the series with L-type calcium channels was 23 µM. Further, at Kv1.5, at 1 µM the inhibition was 90% and half-maximal inhibition (IC50) required 0.689 µM. On HERG, half-maximal inhibition (IC50) required 7.3 µM and the inhibition at 10 µM was 62%.
With `COc1ccc(CCN2C(=O)N(NS(=O)(=O)Cc3ccccc3)CC2c2ccc(OC)cc2)cc1` (stereo not drawn) [Compound 63, 1-[(Phenylmethyl)sulfonylamino]-3-[2-(4-methoxyphenyl)ethyl]-4-(4-methoxyphenyl)-2-imidazolidinone], in the series on L-type calcium channels, the IC50 came to 6.3 µM. On Kv1.5, this compound had an inhibition at 1 µM of 95%. Further, the inhibition at 10 µM at HERG was 44%.
The like results for `COc1ccc(CCN2C(=O)N(NS(N)(=O)=O)CC2c2ccc(C)c(C)c2)cc1` (stereo not drawn) [Compound 8, 1-(Aminosulfonylamino)-3-[2-(4-methoxyphenyl)ethyl]-4-(3,4-dimethylphenyl)-2-imidazolidinone] were, in that order, 15 µM, 90% and 16%.
The like results for `COc1ccc(CCN2C(=O)N(N(CCn3ccnc3)C(=O)OC(C)(C)C)CC2c2ccc(C(C)(C)C)cc2)cc1` (stereo not drawn) [Compound 146, tert-butyl {4-(4-tert-butylphenyl)-3-[2-(4-methoxyphenyl)ethyl]-2-oxoimidazolidin-1-yl}[2-(1H-imidazol-1-yl)ethyl]carbamate] were, in that order, 15 µM, 83% and 86%.
As to `COc1ccc(CCN2C(=O)N(NCc3ccc(N(C)C)cc3)CC2c2ccc(OC)cc2)cc1` (stereo not drawn) [Compound 90, 1-[(4-(Dimethylamino)phenylmethyl)amino]-3-[2-(4-methoxyphenyl)ethyl]-4-(4-methoxyphenyl)-2-imidazolidinone], the IC50 in the series on L-type calcium channels was found to be 7 µM. On Kv1.5, this compound showed an inhibition at 1 µM of 74%. On HERG, this compound displayed an inhibition at 10 µM of 28%.
In the same order, the values of `COc1ccc(CCN2C(=O)N(NS(=O)(=O)Cc3cccnc3)CC2c2ccc(C)cc2)cc1` (stereo not drawn) [Compound 65, 1-[(Pyridin-3-yl)methylsulfonyl]amino-3-[(4-methoxyphenyl)ethyl]-4-(4-methylphenyl)-2-imidazolidinone] are 31 µM, 88% and 38%.
Regarding `COc1ccc(CCN2C(=O)N(NC(=O)OC(C)(C)C)CC2c2ccc(C)c(C)c2)cc1` (stereo not drawn) [Compound 85, {4-(3,4-dimethylphenyl)-3-[2-(4-methoxyphenyl)ethyl]-2-oxo-imidazolidin-1-yl}-carbamic acid tert-butyl ester], the IC50 in the series with L-type calcium channels was 3.3 µM. In addition, the inhibition at 1 µM on Kv1.5 is 92%. Further, the inhibition at 10 µM against HERG was determined as 52%.
As to `COc1ccc(CCN2C(=O)N(NS(C)(=O)=O)CC2c2ccc(OC(F)F)cc2)cc1` (stereo not drawn) [Compound 26, 1-[(Methylsulfonyl)amino]-3-[2-(4-methoxyphenyl)ethyl]-4-(4-difluoro-methoxyphenyl)-2-imidazolidinone], the IC50 with L-type calcium channels amounted to 17.5 µM. On Kv1.5, this compound yielded an inhibition at 1 µM of 66% and an IC50 of 0.716 µM. For the same compound, at HERG, half-maximal inhibition (IC50) was put at 4.1 µM and the inhibition at 10 µM was found to be 76%.
The like results for `COc1ccc(CCN2C(=O)N(NS(C)(=O)=O)CC2c2ccc(C3CC3)cc2)cc1` (stereo not drawn) [Compound 28, 1-[(Methylsulfonyl)amino]-3-[(4-methoxyphenyl)ethyl]-4-(4-cyclopropylphenyl)-2-imidazolidinone] were, in that order, 16 µM, 89%, 0.184 µM, 10.3 µM and 30%.
Regarding `COc1ccc(CCN2C(=O)N(NS(C)(=O)=O)CC2c2ccc(C)c(OC)c2)cc1` (stereo not drawn) [Compound 13, 1-(Methylsulfonylamino)-3-[2-(4-methoxyphenyl)ethyl]-4-[(3-methoxy-4-methyl)phenyl]-2-imidazolidinone], the concentration for half-maximal inhibition (IC50) in the series on L-type calcium channels was 27 µM. 1 µM produced 83% inhibition against Kv1.5. For the same compound, testing at 10 µM on HERG gave an inhibition of 10%.
In the same order, the values of `CCN(CC)c1ccc(C2CN(NS(C)(=O)=O)C(=O)N2CCc2ccc(OC)cc2)cc1` (stereo not drawn) [Compound 25, 1-(Methylsulfonylamino)-3-[2-(4-methoxyphenyl)ethyl]-4-[(4-diethylamino)-phenyl]-2-imidazolidinone] are 28 µM, 84% and 31%.
`COCCN(CCOC)C(=O)CS(=O)(=O)NN1CC(c2ccc(C3CC3)cc2)N(CCc2ccc(OC)cc2)C1=O` (stereo not drawn) [Compound 60, 1-[[2-[(Bis(methoxyethyl)amino)]-2-oxoethyl]sulfonylamino]-3-[2-(4-methoxy-phenyl)ethyl]-4-(4-cyclopropylphenyl)-2-imidazolidinone]: the IC50 in the series on L-type calcium channels is 10.6 µM. Further, on Kv1.5, at 1 µM the inhibition was 77% and half-maximal inhibition (IC50) was put at 0.453 µM. At HERG, this compound yielded an IC50 of 7.4 µM and an inhibition at 10 µM of 44%.
On to `COc1ccc(CCN2C(=O)N(NS(=O)(=O)CF)CC2c2ccc(C(C)(C)C)cc2)cc1` (stereo not drawn) [Compound 36, 1-(Fluoromethylsulfonylamino)-3-[2-(4-methoxyphenyl)ethyl]-4-(4-tert-butyl-phenyl)-2-imidazolidinone], for which, in the series with L-type calcium channels, the IC50 was 14 µM. This compound came in with an inhibition at 1 µM on Kv1.5 of 85%. In addition, on HERG, the inhibition at 10 µM amounted to 50%.
Turning to `COc1ccc(CCCN2C(=O)N(NS(C)(=O)=O)CC2c2ccc(OC)cc2)cc1` (stereo not drawn) [Compound 49, 1-(Methylsulfonylamino)-3-[3-(4-methoxyphenyl)propyl]-4-[(4-methoxy)-phenyl]-2-imidazolidinone], in the series on L-type calcium channels, the IC50 was determined as 23 µM. On Kv1.5, this compound yielded an inhibition at 1 µM of 76% and an IC50 of 0.466 µM. On HERG, this compound yielded an IC50 of 11.4 µM and an inhibition at 10 µM of 25%.
For `COc1ccc(CCN2C(=O)N(NS(=O)(=O)CF)CC2c2ccc3c(c2)OCCO3)cc1` (stereo not drawn) [Compound 37, 1-(Fluoromethylsulfonylamino)-3-[2-(4-methoxyphenyl)ethyl]-4-[(2,3dihydro-benzo[b][1,4]dioxin-6-yl)]-2-imidazolidinone], in the series with L-type calcium channels, the IC50 came to 30 µM. Moreover, the inhibition at 1 µM on Kv1.5 turned out to be 87%. For the same compound, at HERG, the inhibition at 10 µM is 6%.
The like results for `COc1ccc(CCN2C(=O)N(NS(C)(=O)=O)CC2Cc2ccc(C(C)(C)C)cc2)cc1` (stereo not drawn) [Compound 11, 1-(Methylsulfonylamino)-3-[2-(4-methoxyphenyl)ethyl]-4-[(4-tert-butyl)benzyl]-2-imidazolidinone] were, in that order, 13 µM, 95% and 45%.
Turning to `COc1ccc(CCCN2C(=O)N(N)CC2c2ccc(C3CC3)cc2)cc1` (stereo not drawn) [Compound 4, 1-Amino-4-(4-cyclopropylphenyl)-3-[3-(4-methoxyphenyl)propyl]-2-imidazolidinone], the IC50 in the series with L-type calcium channels is 4.5 µM. At 1 µM the inhibition on Kv1.5 was 72%. At HERG, the inhibition at 10 µM was determined as 53%.
For `COc1ccc(CCN2C(=O)N(NC(=O)CS(=O)(=O)N(C)C)CC2c2ccc(C3CC3)cc2)cc1` (stereo not drawn) [Compound 82, N-(4-(4-cyclopropylphenyl)-3-(4-methoxyphenethyl)-2-oxoimidazolidin-1-yl)-2-(N,N-dimethylsulfamoyl)acetamide], the IC50 in the series on L-type calcium channels is 30 µM. The compound further yielded an inhibition at 1 µM against Kv1.5 of 72%. Testing at 10 µM at HERG gave an inhibition of 42%.
In the same order, the values of `COc1ccc(CCN2C(=O)N(NS(=O)(=O)CF)CC2c2ccc(OC)cc2)cc1` (stereo not drawn) [Compound 35, 1-(Fluoromethylsulfonylamino)-3-[2-(4-methoxyphenyl)ethyl]-4-(4-methoxy-phenyl)-2-imidazolidinone] are 30 µM, 71% and 14%.
In the same order, the values of `COCCN(N1CC(c2ccc(C3CC3)cc2)N(CCc2ccc(OC)cc2)C1=O)S(C)(=O)=O` (stereo not drawn) [Compound 68, 1-[(N-Methoxyethyl-N-methylsulfonyl)amino]-3-[2-(4-methoxyphenyl)ethyl]-4-(4-cyclopropylphenyl)-2-imidazolidinone] are 16 µM, 60% and 48%.
In the case of `COc1ccc(CCN2C(=O)N(NS(=O)(=O)CC(=O)NCC3CC3)CC2c2ccc(OC)cc2)cc1` (stereo not drawn) [Compound 57, 1-[[2-[(Cyclopropylmethyl)amino]-2-oxoethyl]sulfonylamino]-3-[2-(4-methoxy-phenyl)ethyl]-4-(4-methoxyphenyl)-2-imidazolidinone], the half-maximal inhibitory concentration (IC50) with L-type calcium channels was found to be 30 µM; on Kv1.5, 0.631 µM; at HERG, 12.4 µM. At Kv1.5, this compound had an inhibition at 1 µM of 66%. Besides, on HERG, at 10 µM the inhibition was 12%.
